The test system of one data set is feline asthma. As to the kind of experiment: Treatment of asthma in a tiger cub. The data set is classed as in vivo, Bengal Tiger. Particulars: for response of respiratory clinical signs to bronchodilators: terbutaline 0.3 mg/kg orally, Ventolin puffer 100 μg by inhalation. Here is the method:
Respiratory problems were first noticed in Kaasha, a female Bengal Tiger cub at the Dreamworld park, Australia, at the age of 10 weeks and around 10 kg body weight.
Approximately three weeks after initial clinical signs, the treatment included Clavulox (7 mg/kg administered subcutaneously), doxycycline (5 mg/kg administeredorally), and enrofloxacin (5 mg/kg administered subcutaneously) and terbutaline (0.3 mg/kg administered orally), nebulisation (saline) and percussion, use of Ventolin 100 μg by puffer inhalation and terbutaline (0.3 mg/kg administered orally) as necessary to control dyspnoea. Prednisolone was given as a single daily dose of 2 mg/kg, and Seretide (Salmeterol 50 μg plus fluticasone 250 μg) was given using a mask and spacer. […] This combination of treatment was maintained over the next month.
Consequently an experimental technique involving direct injection of Prednisolone sodium succinate, 1200 mg in a total volume of 30 ml (40 mg/ml aqueous solution), was instilled into the trachea under general anaesthesia.
Three weeks after the intra-airway steroid procedure, another experimental therapy was applied. […] (1) were administered at a dose rate of 0.3 mg/kg as single daily subcutaneous injections for six days, followed by twice-weekly injections for 8 weeks. At this time the dose of oral corticosteriod, Prednisolone approx 1 mg/kg reducing, had been reduced to 20 mg per day because of concern regarding side effects of prolonged high dose use.

For the next data set, the system named is equine receptor. As to the kind of experiment: Binding to equine C5a receptor. On the set-up: species or system horse.
A further data set relates to allergic dermatitis. Nature of the data set: Treatment of allergic/atopic dermatitis in dogs. The class given is in vivo, dog. The text has this: Because of the intermittent nature of the lameness the owner, a veterinarian, found it difficult to assess any improvement.
A very old dog (estimated age 13-16 years) admitted to a pound was diagnosed as having severe atopic dermatitis affecting 100% of the skin and the inside of the ear pinnae (otitis external, and keratoconjunctivitis sicca (“dry eye”). The dog had broken skin over the dorsum of the tail, and both eyes were encrusted with yellow exudate.
The sores on the tail resolved within 3 days.

In another data set the test system is circulating TNFα. As to the kind of experiment: Reverse passive dermal Arthus reaction in the rat: serum TNFα ELISA. Particulars: intravenous, oral and topical pretreatment, FIG. 2. The data set is classed as in vivo. Here is the method: (§1) The lateral surfaces of the rat were carefully shaved and 5 distinct sites on each lateral surface clearly delineated. A reverse passive Arthus reaction was induced in each dermal site by injecting Evans blue (15 mg kg^−1 i.v.), chicken ovalbumin (20 mg kg^−1 i.v.) into the femoral vein 10 min prior to the injection of antibody. Rabbit anti-chicken ovalbumin (saline only, 100, 200, 300 or 400 μg antibody in a final injection volume of 30 μL) was injected in duplicate at two separate dermal sites on each lateral surface of the rat, giving a total of 10 injection sites per rat. Rats were placed on a heating pad, and anaesthetic was maintained over a 4 h-treatment period with periodic collection of blood samples. Blood was allowed to spontaneously clot on ice, and serum samples were collected and stored at −20° C. […] Additionally, a second set of skin samples were placed in 1 mL of formamide overnight, and the absorbance of Evans blue extraction measured at 650 nm, as an indicator of serum leakage into the dermis. […] Data are shown as absorbance at 650nm as a percentage of the plasma absorbance, as mean values ±SEM (n=3-6). *indicates a P value ≦0.05 when compared to Arthus control values. […]
Serum TNFα concentrations were measured using an enzyme-linked immunosorbent assay (ELISA) kit (Strachan et al., 2000). […]

A short description of data set [1]: Safety observations in dogs treated with PMX53 (haematology, biochemistry, autopsy, injection site). To be noted: both dogs; duration of the experiment.
Description: (§2) Blood samples were collected after 4 weeks of treatment. […] Biochemistry and haematology was repeated on the high-dose dog at this time.
(§3) The second dog was bled for haematology and biochemistry after a total of seven weeks treatment.
Data set [2] relates to dermal Arthus reaction. As to the kind of experiment: Reverse passive dermal Arthus reaction in the rat: vascular leakage (Evans blue). Particulars: intravenous, oral and topical pretreatment, FIG. 1. The data set is classed as in vivo. As to the method:
(1) by oral gavage (10 mg kg^−1 dissolved in 10% ethanol/90% saline solution to a final volume of 200 μl) or an appropriate oral vehicle control 30 min prior to deposition of antibody. Female Wistar rats (150-250 g) were anaesthetised with ketamine (80 mg kg^−1 i.p.) and xylazine (12 mg kg^−1 i.p.).
as §1, with “samples.” for “samples. Blood was allowed to spontaneously clot on ice, and serum samples were collected and stored at −20° C.”

For data set [3] the following is noted: dog, in vivo, sc.
Description: as §2, §3
In data set [4] the test system is dermal Arthus reaction. As to the kind of experiment: Reverse passive dermal Arthus reaction in the rat: pathology assessment (PMN infiltration score). The data set is classed as in vivo. Particulars: intravenous, oral and topical pretreatment, FIG. 3. As to the method:
as §1, with “samples.” for “samples. Blood was allowed to spontaneously clot on ice, and serum samples were collected and stored at −20° C.”
Rat skin samples were fixed in 10% buffered formalin for at least 10 days, and stained with haematoxylin and eosin using standard histological techniques. Dermal samples were analysed in a blind fashion for evidence of pathology, and the degree of rat PMN infiltration was scored on a scale of 0-4. […]

A further data set relates to feline C5a receptor. Nature of the data set: Binding to feline C5a receptor. More on the design: species or system cat.
Data set [5] relates to demodectic dermatitis (Demodex canis infestation). Nature of the data set: Treatment of flea allergy dermatitis and demodectic dermatitis in dogs. The class given is in vivo, dog. The text has this: Demodex, also known as demodectic mange or red mange, is an infestation of the skin caused by the mite Demodex canis which causes dermatitis, skin thickening and hair loss, and is very common in dogs. This condition is thought to be due partially to impaired immune responses in the host. It is often associated with flea infestation, which itself can cause an allergic dermatitis. The skin irritation in infected animals is sometimes very extensive, and results in loss of hairs and severe skin rashes. […] (b) A mastiff pup (approximately 6 months old) was diagnosed as having demodex infestation (folliculitis) of the head, involving both eyelids. […] The eyes were red and discharging, and the dog squinted because of the ocular pain. […] This was applied to the eyelid lesion so that the lesion was wet, and was also instilled into the eyes. […] This was considered to be a very significant clinical response.

[6] abbreviates: old dog, topical 5 mg/ml once a day.
The mark [7] stands for this setting: mastiff pup, topical 10 mg/ml daily, after 5 days.

For the compound `CC(C)(C)NCC(O)c1cc(O)cc(O)c1` (centres unmarked) [terbutaline, reference compound], the “response of respiratory clinical signs to bronchodilators” value with feline asthma is “responded rapidly”.
As for `CC(C)(C)NCC(O)c1ccc(O)c(CO)c1` (centres unmarked) [Ventolin, albuterol, reference compound], the “response of respiratory clinical signs to bronchodilators” value in the data set on feline asthma was “responded rapidly”.
As to “Prednisolone sodium succinate [reference compound]”, in the data set with feline asthma (1200 mg in 30 ml instilled into the trachea, within 24 hours), the respiratory effort result was “rapid and marked improvement in respiratory effort”.
Regarding AcF-[OPdChaWR] [PMX53], the “binding to the equine receptor” value with equine receptor is reported as “binds less effectively”. Further, the allergic dermatitis result with allergic dermatitis (kelpie dog, 1 mg/kg/day PO) is “marked improvement in the dog's allergic dermatitis, which had apparently resolved completely”. Also, the “time to resolution of sores on the tail” value in the data set on allergic dermatitis (old dog, severe atopic dermatitis, topical 5 mg/ml in 50% propylene glycol:50% water once a day) is listed as at most 3 days. Moreover, the gait result in the data set with allergic dermatitis (old dog, after treatment, initially very stilted gait) was “able to walk and trot freely”. In the data set with allergic dermatitis (old dog, eye-drop formulation 5 mg/ml in 30% polyethylene glycol:70% normal saline), the “eyes (keratoconjunctivitis sicca)” value is “improved to the point of being essentially normal in appearance”. For the same compound, in the data set with allergic dermatitis (setting [6]), the itching result is listed as “no signs of itching”; the “thickening of the skin over the stifle and ischial tuberosity” value is “resolved noticeably”. Moreover, the “severe allergic dermatitis (presumed flea allergy)” value in the data set with allergic dermatitis (second dog, 0.3 mg/kg s.c. once daily, FIG. 4) is reported as “completely resolved”. In addition, the “breathing and recovery time after episodes of dyspnoea” value in the data set with feline asthma (0.3 mg/kg single daily subcutaneous injections for six days) was “moderate to marked improvement”. Also, in the data set with feline asthma (0.3 mg/kg subcutaneous twice-weekly injections), the “general breathing pattern and recovery time” value is reported as “not as good during twice weekly treatments as it had been following daily injections, although recovery time was comparable”. Besides, the “playfulness, general activity level, appetite and general demeanour” value in the data set on feline asthma (together with reduction in oral cortisone dosage) is listed as “marked improvement”. Moreover, in the data set on circulating TNFα, the “rise in circulating TNFα associated with a dermal Arthus reaction” value was “inhibition of the rise in circulating TNFα”. Besides, in [1], the “signs of drug toxicity” value is “no signs of drug toxicity”. In addition, the “vascular leakage associated with a dermal Arthus reaction” value in the data set with dermal Arthus reaction [2] is reported as “inhibition of the vascular leakage”. Further, the “irritation at the site of injection” value in [3] is “no evidence of irritation”. For the same compound, in data set [3] (0.3 mg/kg), the discomfort on injection result is on record as “No discomfort was noted”; the “haematology and biochemistry abnormalities” value is “No abnormalities were detected”. The “pathology index associated with a dermal Arthus reaction” value with dermal Arthus reaction [4] is given as “reduction of the pathology index”. For the same compound, the “binding to the feline C5a receptor” value in the data set with feline C5a receptor was “bind well”. Moreover, the “eyelid inflammation / trichiasis” value in data set [5] (mastiff pup, eye drops 10 mg/ml once daily, over 5 days) is “inflammation resolved to the point that the trichiasis was relieved”. Moreover, in [5] (setting [7]), the “inflammation in the skin (head lesions)” value is listed as “inflammation in the skin was reduced” and the “mites in scrapings taken from the lesion” value is reported as “mites were still present”. Further, the “inflammatory response in the skin” value in data set [5] (two dogs with demodectic dermatitis, 0.3 mg/kg s.c. for 13 days) is “significant reduction in the inflammatory response in the skin”.

Source of the values: patent publication US20070021329A1, “Treatment of hypersensitivity conditions” (THE University of QUEENSLAND, priority 2002, published 2007).
